# Results taken from PubChem BioAssay (NCI).
#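 The compound was tested at five concentrations on cells cultured in 96-well plates, with a 48-hour exposure period. TGI: total growth inhibition.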
# Legend:
# Test in all cases: NCI tumour cell line growth inhibition, 48 h
# NCI-H460 lung = tested on: NCI-H460 lung
# LOX IMVI melanoma = tested on: LOX IMVI melanoma
# ACHN renal = tested on: ACHN renal
# NCI-H226 lung = tested on: NCI-H226 lung
# HCC-2998 colon = tested on: HCC-2998 colon
# 786-0 renal = tested on: 786-0 renal
# A498 renal = tested on: A498 renal
# SF-295 CNS = tested on: SF-295 CNS
# DMS 273 small cell lung = tested on: DMS 273 small cell lung
# SK-MEL-2 melanoma = tested on: SK-MEL-2 melanoma
# SF-539 CNS = tested on: SF-539 CNS
# SF-268 CNS = tested on: SF-268 CNS
# CCRF-CEM leukemia = tested on: CCRF-CEM leukemia
# TK-10 renal = tested on: TK-10 renal
# KM20L2 colon = tested on: KM20L2 colon
# MOLT-4 leukemia = tested on: MOLT-4 leukemia
# SNB-19 CNS = tested on: SNB-19 CNS
# SNB-78 CNS = tested on: SNB-78 CNS
# EKVX NSCLC = tested on: EKVX NSCLC
# HL-60(TB) leukemia = tested on: HL-60(TB) leukemia
# OVCAR-5 ovarian = tested on: OVCAR-5 ovarian
# SR leukemia = tested on: SR leukemia
# IGROV1 ovarian = tested on: IGROV1 ovarian
# SW-620 colon = tested on: SW-620 colon
# UO-31 renal = tested on: UO-31 renal
# SN12C renal = tested on: SN12C renal
# OVCAR-3 ovarian = tested on: OVCAR-3 ovarian
# UACC-257 melanoma = tested on: UACC-257 melanoma
# UACC-62 melanoma = tested on: UACC-62 melanoma
# KM12 colon = tested on: KM12 colon
# RPMI-8226 leukemia = tested on: RPMI-8226 leukemia
# OVCAR-8 ovarian = tested on: OVCAR-8 ovarian
# HCT-15 colon = tested on: HCT-15 colon
# SK-MEL-28 melanoma = tested on: SK-MEL-28 melanoma
# M14 melanoma = tested on: M14 melanoma
# RXF 393 renal = tested on: RXF 393 renal
# K-562 leukemia = tested on: K-562 leukemia
# U251 CNS = tested on: U251 CNS
# NCI-H23 lung = tested on: NCI-H23 lung
# NCI-H522 lung = tested on: NCI-H522 lung
# CAKI-1 renal = tested on: CAKI-1 renal
# OVCAR-4 ovarian = tested on: OVCAR-4 ovarian
# COLO 205 colon = tested on: COLO 205 colon
# HT29 colon = tested on: HT29 colon
# A549 NSCLC = tested on: A549 NSCLC
# LXFL 529 NSCLC = tested on: LXFL 529 NSCLC
# M19-MEL melanoma = tested on: M19-MEL melanoma
# DMS 114 small cell lung = tested on: DMS 114 small cell lung
# HCT-116 colon = tested on: HCT-116 colon
# SK-MEL-5 melanoma = tested on: SK-MEL-5 melanoma
# SK-OV-3 ovarian = tested on: SK-OV-3 ovarian
# XF 498 CNS = tested on: XF 498 CNS
# DLD-1 colon = tested on: DLD-1 colon
# MALME-3M melanoma = tested on: MALME-3M melanoma
# HOP-92 NSCLC = tested on: HOP-92 NSCLC
# SNB-75 CNS = tested on: SNB-75 CNS
# HOP-62 NSCLC = tested on: HOP-62 NSCLC
smiles,measurement,setting,value
COc1ccc2c3c([nH]c2c1[N+](=O)[O-])C(C)N(Cc1ccc([N+](=O)[O-])cc1)CC3 (stereo not drawn),TGI,NCI-H460 lung,34.7 µM
same,TGI,LOX IMVI melanoma,26.8 µM
same,TGI,ACHN renal,> 100 µM
same,TGI,NCI-H226 lung,42.4 µM
same,TGI,HCC-2998 colon,37.3 µM
same,TGI,786-0 renal,> 100 µM
same,TGI,A498 renal,63.7 µM
same,TGI,SF-295 CNS,43 µM
same,TGI,DMS 273 small cell lung,27.8 µM
same,TGI,SK-MEL-2 melanoma,41 µM
same,TGI,SF-539 CNS,> 100 µM
same,TGI,SF-268 CNS,9.22 µM
same,TGI,CCRF-CEM leukemia,> 100 µM
same,TGI,TK-10 renal,> 100 µM
same,TGI,KM20L2 colon,45 µM
same,TGI,MOLT-4 leukemia,> 100 µM
same,TGI,SNB-19 CNS,> 100 µM
same,TGI,SNB-78 CNS,> 100 µM
same,TGI,EKVX NSCLC,> 100 µM
same,TGI,HL-60(TB) leukemia,17.9 µM
same,TGI,OVCAR-5 ovarian,> 100 µM
same,TGI,SR leukemia,> 100 µM
same,TGI,IGROV1 ovarian,> 100 µM
same,TGI,SW-620 colon,> 100 µM
same,TGI,UO-31 renal,> 100 µM
same,TGI,SN12C renal,60.7 µM
same,TGI,OVCAR-3 ovarian,64.7 µM
same,TGI,UACC-257 melanoma,61.5 µM
same,TGI,UACC-62 melanoma,52.4 µM
same,TGI,KM12 colon,49.6 µM
same,TGI,RPMI-8226 leukemia,26.2 µM
same,TGI,OVCAR-8 ovarian,64.4 µM
same,TGI,HCT-15 colon,54.9 µM
same,TGI,SK-MEL-28 melanoma,44.5 µM
same,TGI,M14 melanoma,35.9 µM
same,TGI,RXF 393 renal,57.1 µM
same,TGI,K-562 leukemia,77.1 µM
same,TGI,U251 CNS,46.9 µM
same,TGI,NCI-H23 lung,44.5 µM
same,TGI,NCI-H522 lung,20.8 µM
same,TGI,CAKI-1 renal,32.5 µM
same,TGI,OVCAR-4 ovarian,12.2 µM
same,TGI,COLO 205 colon,35.8 µM
same,TGI,HT29 colon,35.3 µM
same,TGI,A549 NSCLC,> 100 µM
same,TGI,LXFL 529 NSCLC,59.8 µM
Cc1ccccc1NC(=O)c1c(C)oc2c1C(=O)c1ccccc1C2=O,TGI,NCI-H460 lung,> 100 µM
same,TGI,M19-MEL melanoma,26.6 µM
same,TGI,DMS 114 small cell lung,68 µM
same,TGI,LOX IMVI melanoma,41.3 µM
same,TGI,ACHN renal,> 100 µM
same,TGI,NCI-H226 lung,> 100 µM
same,TGI,HCC-2998 colon,> 100 µM
same,TGI,786-0 renal,> 100 µM
same,TGI,A498 renal,> 100 µM
same,TGI,SF-295 CNS,> 100 µM
same,TGI,HCT-116 colon,> 100 µM
same,TGI,DMS 273 small cell lung,> 100 µM
same,TGI,SK-MEL-2 melanoma,> 72.3 µM
same,TGI,SF-539 CNS,> 68.5 µM
same,TGI,SK-MEL-5 melanoma,27.1 µM
same,TGI,SF-268 CNS,> 100 µM
same,TGI,CCRF-CEM leukemia,48.1 µM
same,TGI,TK-10 renal,> 100 µM
same,TGI,KM20L2 colon,> 100 µM
same,TGI,MOLT-4 leukemia,47.4 µM
same,TGI,SNB-19 CNS,> 100 µM
same,TGI,SNB-78 CNS,5.98 µM
same,TGI,EKVX NSCLC,> 100 µM
same,TGI,HL-60(TB) leukemia,56.9 µM
same,TGI,OVCAR-5 ovarian,> 100 µM
same,TGI,SR leukemia,75.5 µM
same,TGI,SK-OV-3 ovarian,> 100 µM
same,TGI,IGROV1 ovarian,> 100 µM
same,TGI,XF 498 CNS,> 70 µM
same,TGI,SW-620 colon,> 57.9 µM
same,TGI,UO-31 renal,> 100 µM
same,TGI,SN12C renal,> 100 µM
same,TGI,OVCAR-3 ovarian,> 72.1 µM
same,TGI,DLD-1 colon,> 68.6 µM
same,TGI,UACC-257 melanoma,52.7 µM
same,TGI,MALME-3M melanoma,27.3 µM
same,TGI,UACC-62 melanoma,49.8 µM
same,TGI,KM12 colon,> 100 µM
same,TGI,RPMI-8226 leukemia,60.9 µM
same,TGI,HOP-92 NSCLC,65.2 µM
same,TGI,OVCAR-8 ovarian,> 100 µM
same,TGI,HCT-15 colon,> 74.8 µM
same,TGI,SK-MEL-28 melanoma,> 100 µM
same,TGI,M14 melanoma,> 69.9 µM
same,TGI,RXF 393 renal,> 100 µM
same,TGI,K-562 leukemia,57.9 µM
same,TGI,U251 CNS,> 20.2 µM
same,TGI,SNB-75 CNS,> 100 µM
same,TGI,HOP-62 NSCLC,> 100 µM
same,TGI,NCI-H23 lung,93.5 µM
same,TGI,NCI-H522 lung,35.8 µM
same,TGI,CAKI-1 renal,> 100 µM
same,TGI,OVCAR-4 ovarian,> 100 µM
same,TGI,COLO 205 colon,> 100 µM
same,TGI,HT29 colon,> 100 µM
same,TGI,A549 NSCLC,> 96.1 µM
same,TGI,LXFL 529 NSCLC,> 55.9 µM
